Measured values from patent US20250136574A1, “SELECTIVE AGENTS TARGETING MYCOBACTERIUM TUBERCULOSIS” (priority 2022, published 2025).
Like-named read-outs stand apart in the source and are kept apart here.

Columns and labels:
[1] = Liver microsomal stability, mouse; conditions: mouse liver microsomes, n = 1
[2] = Plasma stability, human; conditions: n = 1
[3] = Plasma stability, mouse; conditions: n = 1
[4] = PBS solubility; conditions: highest concentration with no detectable precipitate; phosphate-buffered saline
[5] = Human plasma protein binding; conditions: human, plasma
[6] = Liver microsomal stability, human; conditions: human liver microsomes, n = 1
[7] = microsomes
[8] = in vitro; conditions: human, plasma
[9] = microsomes; remark: listed apart in the source
[10] = system: human plasma protein; assay: Human plasma protein binding; conditions: human plasma protein binding

Structure (SMILES) | liver microsomal stability CLint (μL/min/mg), mouse [1] [µL/min/mg] | liver microsomal stability t1/2 (min), mouse [1] [min] | plasma stability t1/2 (min), human [2] | plasma stability t1/2 (min), mouse [3] | PBS solubility [4] [µM] | fraction unbound [5] | liver microsomal stability CLint (μL/min/mg), human [6] [µL/min/mg] | liver microsomal stability t1/2 (min), human [6] [min] | liver microsomal stability CLint (μL/min/mg), human [7] [µL/min/mg] | fraction unbound [8] | liver microsomal stability CLint (μL/min/mg), mouse [9] [µL/min/mg] | plasma protein binding [10] [%]
CCCCCCC#Cc1cncc(-c2nnc(SCc3cc([N+](=O)[O-])cc([N+](=O)[O-])c3)n2C)c1 [drawing 140] | 287 | 4.8 | >480; >480 min | >480; >480 min | <1.6 | < 0.001 | 357 | 3.9 | – | – | – | –
CCCCCCC#Cc1cncc(-c2nnc(SCc3ccc([N+](=O)[O-])o3)n2C2CC2)c1 [drawing 141] | – | 2.5 | 259 min | 238 min | 3.1 | – | – | 1.9 | 470 | < 0.001 | 546 | –
CC(=O)CC(c1ccccc1)c1c(O)c2ccccc2oc1=O (centres unmarked) [warfarin] | – | – | – | – | – | – | – | – | – | – | – | >99.9
